Results taken from US20100310478A1, “SUBSTITUTED BENZOQUINONES AND HYDROQUINONES IN THE TREATMENT OF PERIODONTAL DISEASES” (priority 2007, published 2010).
Converted amounts (≈) assume the structure as drawn. Where two headings read alike, the source gives them in different places.

Assays:
[1] = test system: P. gingivalis NCTC 11834; experiment: Minimum inhibitory concentration (MIC) assay; format: cell-based, Porphyromonas gingivalis
Method: (§1) P. gingivalis strains were cultured and maintained on Wilkins-Chalgren Anaerobe Medium (agar and broth) at pH 7.0; all cultures were incubated anaerobically at 37° C. for 5-7 days. This is a standard international method for quantitatively assessing the antimicrobial activity of a compound in a liquid medium. The method used a sterile 96-well microtitre plate, capable of holding about 200 μl of liquid per well. […] The culture medium was as described above. The wells were inoculated with a liquid suspension of freshly grown micro-organism and incubated under the conditions described above. After incubation, the microtitre plate was examined visually (with the aid of a light box) for cloudiness in each well, which would indicate microbial growth. The MIC value was recorded as the lowest concentration of test compound required to inhibit microbial growth, ie the lowest concentration for which the liquid in the well remained clear. The assays were conducted in duplicate (minimum) and included both negative (culture medium with no micro-organisms) and positive (culture medium plus diluting solvent plus micro-organism) controls.

[2] = test system: P. gingivalis NCTC 11834; experiment: Minimum bactericidal concentration (MBC) assay; format: cell-based, Porphyromonas gingivalis
Method: P. gingivalis strains were cultured and maintained on Wilkins-Chalgren Anaerobe Medium (agar and broth) at pH 7.0; all cultures were incubated anaerobically at 37° C. for 5-7 days.
(§2) This assay, normally carried out after an MIC assay, determines the minimum concentration of a compound that is lethal to the micro-organism being tested.
(§3) These samples were then individually sub-cultured on antibiotic-free agar medium, under the incubation conditions described above. Following incubation they were examined visually for microbial growth.
(§4) The ratio of MIC to MBC should ideally be as close to 1 as possible.

[3] = test system: S. mutans ATCC 25175; experiment: Minimum inhibitory concentration (MIC) assay; format: cell-based, Streptococcus mutans
Method: as §1, with “S. mutans was” for “P. gingivalis strains were”, “7.0 supplemented with 1 g/L glucose;” for “7.0;”, “incubated” for “incubated anaerobically”, “48 hours in an atmosphere containing 5% CO2. For the formation of biofilms in biofilm disruption assays, however, S. mutans was grown in brain-heart infusion broth supplemented with 5% sucrose.” for “5-7 days.”

[4] = test system: S. mutans ATCC 25175; experiment: Minimum bactericidal concentration (MBC) assay; format: cell-based, Streptococcus mutans
Method: S. mutans was cultured and maintained on Wilkins-Chalgren Anaerobe Medium (agar and broth) at pH 7.0 supplemented with 1 g/L glucose; all cultures were incubated at 37° C. for 48 hours in an atmosphere containing 5% CO2. For the formation of biofilms in biofilm disruption assays, however, S. mutans was grown in brain-heart infusion broth supplemented with 5% sucrose.
as §2, §3, §4

[5] = test system: P. gingivalis NCTC 11834; experiment: Short-contact kill assay (SCKA); format: cell-based, Porphyromonas gingivalis; settings: 0.2% (w/v)
Method: (§5) This quantitative assay was designed to determine the relative potency of a test compound or combination of test compounds to kill a test micro-organism over a short-contact time period (up to 5 minutes).
(§6) Samples from a culture of micro-organisms (ca. 1×10^8 cfu/ml) prepared in phosphate buffered saline (PBS) containing the relevant test compound(s) were taken at timed intervals (between 0 and 5 minutes), 10-fold serially diluted in PBS and then inoculated onto agar plates in triplicate. A culture containing only the solvent(s) used to dissolve the test compound(s) acted as a control for the assay (maximum solvent load 2.5% v/v).
(§7) The plates were then incubated as described above and subsequently examined visually for growth. Colonies were counted at an appropriate serial dilution (5-50 individual colonies visible) with the aid of a colony counter. These measurements were then converted to numbers of colony forming units (cfu), using the formula: cfu/ml=number of colonies×serial dilution factor×100 (as only a […] was taken).
(§8) These cfu values were then converted into […] values and plotted graphically against time of sample removal.
(§9) At each time point, samples were assessed in triplicate; the final cfu/ml value was an average (mean) of the three readings.
(§10) SCKAs, as described above, were carried out using TBHQ as the test compound. Chlorhexidine was used as a positive control and 2.5% ethanol as a negative control.
(§11) For the SCKA experiments, the TBHQ and chlorhexidine were both tested at concentrations of 0.2% w/v. The TBHQ was dissolved in ethanol and the chlorhexidine in distilled water. All the experiments were conducted in triplicate.

[6] = test system: S. mutans ATCC 25175; experiment: Short-contact kill assay (SCKA); format: cell-based, Streptococcus mutans; settings: 0.2% (w/v)
Method: as §5, §6, §7, §8, §9, §10, §11

[7] = test system: P. gingivalis 381 biofilm; experiment: Biofilm disruption assay on hydroxyapatite discs; format: cell-based, Porphyromonas gingivalis; settings: 0.2% (w/v)
Method: (§12) This assay was designed to determine quantitatively the relative potency of a test compound to disrupt (effectively kill) biofilms formed by a test organism on hydroxyapatite (HA) discs. Biofilms were formed on sterile dense ceramic HA discs 7 mm diameter×1.8 mm thick (Clarkson Chromatography) by placing the discs in the appropriate liquid media (as described above) inoculated with the test organism (0.5×10^8 cfu/ml). The HA discs were then incubated at 37° C. for ˜48 hours in a 5% CO2 atmosphere (for S. mutans ATCC 25175) or ˜96 hours under anaerobic conditions (for P. gingivalis 381). Following the incubation period the supernatant was removed from the wells containing the HA discs and the discs were washed x3 with fresh media to ensure all planktonic cells were removed. The HA discs were then transferred to sterile bijoux bottles containing 1 ml of phosphate buffered saline (PBS) plus test compound(s) at the required concentration. After a set time period (usually 2 and/or 5 min), the HA disc was transferred to another sterile bijoux containing 1 ml of fresh growth media. Adherent cells were then harvested by vigorous vortexing for 2 minutes. A sample was then taken, serially diluted 10-fold in fresh growth media and inoculated onto agar plates in triplicate. Untreated HA discs, and HA discs added to PBS containing only the solvents used to dissolve the test compound(s), acted as controls. The plates were then incubated as described above and subsequently examined visually for growth. Colonies were counted at an appropriate serial dilution (5-50 individual colonies visible) with the aid of a colony counter. These measurements were then converted to numbers of colony forming units (cfu), using the formula: cfu/ml=number of colonies×serial dilution factor×100 (as only a 10 μl sample was taken). These cfu values were then converted into log10 values and plotted graphically against time of sample removal. At each time point, samples were assessed in triplicate; the final cfu/ml value was an average (mean) of the three readings. Biofilm disruption assays, as described above, were carried out using TBHQ as the test compound and chlorhexidine as a positive control. The negative control was 5% ethanol. For these experiments, the TBHQ and chlorhexidine were tested at concentrations of 0.2% w/v. The TBHQ was dissolved in ethanol and the chlorhexidine in distilled water. All the experiments were conducted in triplicate.

[8] = test system: S. mutans ATCC 25175 biofilm; experiment: Biofilm disruption assay on hydroxyapatite discs; format: cell-based, Streptococcus mutans; settings: 0.2% (w/v)
Method: as §12

[9] = 1 min, 3.00 = limit of detection

| Structure (SMILES) | MIC ([1]; Table 7) [µg/mL] | MBC ([2]; Table 7) [µg/mL] | MIC/MBC ratio ([2]; Table 7) | MIC ([3]; Table 8) [µg/mL] | MBC ([4]; Table 8) [µg/mL] | MIC/MBC ratio ([4]; Table 8) | also measured |
| --- | --- | --- | --- | --- | --- | --- | --- |
| Oc1ccc(O)c(F)c1F [2,3-difluoro-p-hydroquinone] | 3.9 (≈ 26.7 µM) | 7.8 (≈ 53.4 µM) | 0.5 | 125 (≈ 856 µM) | 250 (≈ 1710 µM) | 0.5 |  |
| CC(C)(C)c1cc(O)c(C(C)(C)C)cc1O [2,5-di-t-butyl-p-hydroquinone] | 15.6 (≈ 70.2 µM) | 15.6 (≈ 70.2 µM) | 1 | 250 (≈ 1120 µM) | > 250 | <0.5 |  |
| CCC(C)(C)c1cc(O)c(C(C)(C)CC)cc1O [2,5-di-t-pentyl-p-hydroquinone] | 3.9 (≈ 15.6 µM) | 3.9 (≈ 15.6 µM) | 1 | 125 (≈ 499 µM) | 250 (≈ 998 µM) | 0.5 |  |
| CC1=CC(=O)C(Cl)=CC1=O [2-chloro-5-methyl-p-benzoquinone] | 0.98 (≈ 6.26 µM) | 1.95 (≈ 12.5 µM) | 0.5 | 62.5 (≈ 399 µM) | 125 (≈ 798 µM) | 0.5 |  |
| CCc1cc(O)ccc1O [2-ethyl-p-hydroquinone] | 0.98 (≈ 7.09 µM) | 1.95 (≈ 14.1 µM) | 0.5 | 31.2 (≈ 226 µM) | 125 (≈ 905 µM) | 0.25 |  |
| CC(C)(C)C1=CC(=O)C=CC1=O [2-t-butyl-p-benzoquinone] | < 0.49 | < 0.49 |  | 31.2 (≈ 190 µM) | 62.5 (≈ 381 µM) | 0.5 |  |
| CCCCCCc1ccc(O)cc1O [4-hexyl resorcinol] | 3.9 (≈ 20.1 µM) | 7.8 (≈ 40.1 µM) | 0.5 | 31.2 (≈ 161 µM) | 125 (≈ 643 µM) | 0.25 |  |
| [H]/N=C(\N/C(=N/[H])NCCCCCCNC(=N)NC(=N)Nc1ccc(Cl)cc1)Nc1ccc(Cl)cc1 [CHX, chlorhexidine, reference compound] |  |  |  |  |  |  | MIC ([1]; Porphyromonas gingivalis, NCTC11834, Tables 1, 2, read-out: MIC): 0.98 µg/mL (≈ 1.94 µM); MBC ([2]; Porphyromonas gingivalis, NCTC11834, Tables 1, 2, read-out: MBC): 0.98 µg/mL (≈ 1.94 µM); MIC/MBC ratio ([2]; Tables 1, 2): 1; MIC ([3]; Streptococcus mutans, ATCC25175, Tables 1, 2, read-out: MIC): 0.625 µg/mL (≈ 1.24 µM); MBC ([4]; Streptococcus mutans, ATCC25175, Tables 1, 2, read-out: MBC): 1.25 µg/mL (≈ 2.47 µM); MIC/MBC ratio ([4]; Tables 1, 2): 0.5; Viable cell counts ([5]; 0 min): 9.29 Log10 cfu/ml; Viable cell counts ([5]; 0.5 min): *3.00 Log10 cfu/ml; Viable cell counts [5, 9]: *3.00 Log10 cfu/ml; Viable cell counts ([6]; 0 min): 8.05 Log10 cfu/ml; Viable cell counts ([6]; 0.5 min, 3.00 = limit of detection): *3.00 Log10 cfu/ml; Viable cell counts [6, 9]: *3.00 Log10 cfu/ml; Viable cell counts ([7]; 0 min): 7.74 Log10 cfu/ml; Viable cell counts ([7]; 2 min): 6.08 Log10 cfu/ml; Viable cell counts ([7]; 5 min, 2.00 = limit of detection): 6.29 Log10 cfu/ml; Viable cell counts ([8]; 0 min): 6.36 Log10 cfu/ml; Viable cell counts ([8]; 2 min): 5.00 Log10 cfu/ml; Viable cell counts ([8]; 5 min): 5.21 Log10 cfu/ml |
| Cc1cc(O)c(C(C)C)cc1O [Thymohydroquinone, thymohydroquinone] | < 0.49 | 0.98 (≈ 5.9 µM) | <0.5 | 1.95 (≈ 11.7 µM) | 250 (≈ 1500 µM) | 0.008 |  |
| CC1=CC(=O)C(C(C)C)=CC1=O [Thymoquinone, thymoquinone] | 0.49 (≈ 2.98 µM) | 0.98 (≈ 5.97 µM) | 0.5 | 3.9 (≈ 23.8 µM) | > 250 | <0.0156 |  |
